Results published in ChEMBL document CHEMBL1201862, “PubChem BioAssay data set” (2004).
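Step 1: Grow cells in 96-well plates. Step 2: Expose to compound for 48 hours at 5 concentrations. Step 3: Interpolate endpoints linearly; if unreached, use highest concentration. Here, GI50 denotes the concentration required for 50% inhibition of growth.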 Calls of active or inactive are those of the source. Cut-off read from the data, not from the text of the source: active = GI50 up to about 1.1 µM and inactive = higher.

Key:
Test in all cases: NCI anticancer screen, dose series, 48 h
HOP-62 = tested on: HOP-62
A549 = tested on: A549
DU-145 = tested on: DU-145
MDA-MB-435 = tested on: MDA-MB-435
OVCAR-5 = tested on: OVCAR-5
SK-MEL-28 = tested on: SK-MEL-28
SK-MEL-5 = tested on: SK-MEL-5
HT-29 = tested on: HT-29
COLO 205 = tested on: COLO 205
CCRF-CEM = tested on: CCRF-CEM
KM12 = tested on: KM12
SR = tested on: SR
HCC 2998 = tested on: HCC 2998
UACC-62 = tested on: UACC-62
TK-10 = tested on: TK-10
LOX IMVI = tested on: LOX IMVI
Malme-3M = tested on: Malme-3M
Hs-578T = tested on: Hs-578T
NCI-H522 = tested on: NCI-H522
SK-OV-3 = tested on: SK-OV-3
T47D = tested on: T47D
U-251 = tested on: U-251
ACHN = tested on: ACHN
786-0 = tested on: 786-0
UO-31 = tested on: UO-31
HCT-116 = tested on: HCT-116
SN12C = tested on: SN12C
NCI/ADR-RES = tested on: NCI/ADR-RES
MCF7 = tested on: MCF7
OVCAR-4 = tested on: OVCAR-4
HCT-15 = tested on: HCT-15
EKVX = tested on: EKVX
NCI-H23 = tested on: NCI-H23
PC-3 = tested on: PC-3
OVCAR-3 = tested on: OVCAR-3
SW-620 = tested on: SW-620
SK-MEL-2 = tested on: SK-MEL-2
SNB-19 = tested on: SNB-19
BT-549 = tested on: BT-549
MOLT-4 = tested on: MOLT-4
SNB-75 = tested on: SNB-75
HOP-92 = tested on: HOP-92
OVCAR-8 = tested on: OVCAR-8
NCI-H460 = tested on: NCI-H460
MDA-MB-231 = tested on: MDA-MB-231
SF-268 = tested on: SF-268
IGROV-1 = tested on: IGROV-1
M14 = tested on: M14
NCI-H226 = tested on: NCI-H226
RPMI-8226 = tested on: RPMI-8226
MDA-N = tested on: MDA-N
SF-295 = tested on: SF-295
CAKI-1 = tested on: CAKI-1
K562 = tested on: K562
HL-60 = tested on: HL-60
SF-539 = tested on: SF-539
RXF 393 = tested on: RXF 393
UACC-257 = tested on: UACC-257

Measured: GI50

S=C(Nc1ccc2c(c1)oc1ccccc12)c1cccnc1
inactive: HOP-62 17.1 µM | A549 37.6 µM | DU-145 > 100 µM | MDA-MB-435 > 100 µM | OVCAR-5 55.8 µM | SK-MEL-28 > 100 µM | SK-MEL-5 70.8 µM | HT-29 > 100 µM | COLO 205 > 100 µM | CCRF-CEM > 100 µM | KM12 > 100 µM | SR > 100 µM | HCC 2998 > 100 µM | UACC-62 39.5 µM | TK-10 30.5 µM | LOX IMVI > 100 µM | Malme-3M > 100 µM | Hs-578T > 10 µM | NCI-H522 22 µM | SK-OV-3 20.4 µM | T47D 30.5 µM | U-251 21.6 µM | ACHN 29.2 µM | 786-0 35.3 µM | UO-31 22.7 µM | HCT-116 85.7 µM | SN12C > 100 µM | NCI/ADR-RES 25.1 µM | MCF7 40.9 µM | OVCAR-4 33.7 µM | EKVX 65.9 µM | NCI-H23 24.5 µM | PC-3 55.3 µM | OVCAR-3 22 µM | SW-620 > 100 µM | SK-MEL-2 30.5 µM | SNB-19 21.3 µM | BT-549 37.1 µM | MOLT-4 > 100 µM | SNB-75 21.2 µM | HOP-92 25.3 µM | OVCAR-8 26.2 µM | NCI-H460 24.6 µM | MDA-MB-231 > 100 µM | SF-268 29.5 µM | IGROV-1 41.1 µM | M14 > 100 µM | NCI-H226 24.3 µM | RPMI-8226 > 100 µM | MDA-N > 100 µM | SF-295 29.9 µM
> 100 µM: HCT-15

Cc1cn(CCOCCOC(=O)NC(CCCNC(N)=O)C(=O)O)c(=O)[nH]c1=O (configuration not stated)
> 100 µM: HCT-15
inactive: HOP-62 > 100 µM | A549 > 100 µM | DU-145 > 100 µM | MDA-MB-435 > 100 µM | OVCAR-5 > 100 µM | SK-MEL-28 > 100 µM | HT-29 > 100 µM | CAKI-1 > 100 µM | COLO 205 > 100 µM | CCRF-CEM > 100 µM | KM12 > 100 µM | SR > 100 µM | HCC 2998 > 100 µM | UACC-62 > 100 µM | TK-10 > 100 µM | LOX IMVI > 100 µM | Hs-578T > 100 µM | SK-OV-3 > 100 µM | T47D > 100 µM | U-251 > 100 µM | ACHN > 100 µM | 786-0 > 100 µM | UO-31 > 100 µM | HCT-116 > 100 µM | SN12C > 100 µM | NCI/ADR-RES > 100 µM | MCF7 > 100 µM | OVCAR-4 > 100 µM | EKVX > 100 µM | NCI-H23 > 100 µM | PC-3 > 100 µM | OVCAR-3 > 100 µM | SW-620 > 100 µM | SK-MEL-2 > 100 µM | SNB-19 > 100 µM | K562 > 100 µM | BT-549 > 100 µM | HL-60 > 100 µM | MOLT-4 > 100 µM | SNB-75 > 100 µM | HOP-92 > 100 µM | OVCAR-8 > 100 µM | NCI-H460 > 100 µM | MDA-MB-231 > 100 µM | SF-539 > 100 µM | SF-268 > 100 µM | RXF 393 > 100 µM | UACC-257 > 100 µM | IGROV-1 36 µM | M14 > 100 µM | NCI-H226 > 100 µM | RPMI-8226 > 100 µM | MDA-N > 100 µM | SF-295 > 100 µM
